Experimental data from article PMC4546618, “Casitas B-Lineage Lymphoma RING Domain Inhibitors Protect Mice against High-Fat Diet-Induced Obesity and Insulin Resistance” (PLoS ONE, 2015).
Like-named read-outs stand apart in the source and are kept apart here. Where a SMILES comes first, the peptide text is derived from it. [ ]: non-standard residue; d: D form. Phe(3-F) = N[C@@H](Cc1cccc(F)c1)C(=O)O; Thz = O=C(O)[C@@H]1CSCN1

What was measured:
[1] = Pharmacokinetic studies, plasma concentration after i.p. injection; assay type: in vivo; details: mice, i.p. 4 mg/kg; for Cmax: male, C57BL/6, mouse, plasma, ip, read-out: maximum concentration in plasma
Protocol: (§1) All experiments were approved by the institutional Animal Care and Use Committee (Chengdu Medical College, China). All experiments were carried out in 10-week-old male mice maintained on the C57BL/6 background. All the animals were kept on a 12-h light/dark cycle with free access to food and water.
Peptides (1, 3, 10, 34, 2, 60, 49, and 51) were dissolved in sterile aqueous 5% dextrose and administered to mice by i.p. injection (4 mg/kg). Blood samples were collected from the tail tip at 0, 0.5, 1, 6, 12, 18, 24 and 48 hours. Plasma samples were harvested by centrifugation and stored at -80°C until assayed. Peptide concentrations in plasma were determined by Reversed-Phase High-Performance Liquid Chromatography (RP-HPLC) with electrospray ionization mass spectrometric ([…]) detection. Samples were assayed with a series of 8 calibration standards of peptide in plasma at concentrations ranging from 50 to 6000 μg/L. Peptide concentrations were determined by comparing to the standards.

Cbl (RING) protein = target: T1, Cbl (RING) protein (Homo sapiens, UniProt P22681); assay: Fluorescence polarization (FP) assay, competition with FITC-βA-PFKPP-NH2 probe; assay type: binding; details: probe FITC-βA-PFKPP-NH2 100 nmol/L, Cbl (RING) protein 3 μmol/L, PBS pH 7.4
T1 construct: including the linker and RING domain (codon 358–457); GST (Glutathione S-Transferase); made in house
T1 sequence (P22681 358-457): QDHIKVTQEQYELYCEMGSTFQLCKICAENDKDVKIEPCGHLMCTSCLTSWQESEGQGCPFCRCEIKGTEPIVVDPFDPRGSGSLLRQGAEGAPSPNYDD
Procedure, shortened: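 GST-tagged c-Cbl linker plus RING domain (codons 358–457), 3 μmol/L, was mixed with 100 nmol/L FITC-βA-PFKPP-NH2 probe in PBS pH 7.4 with 0.01% Triton X-100. Peptides were added as 10–0.078 μmol/L solutions (half-fold dilutions). Polarization was read at ex 485/em 538 nm, and ΔmP, Kd and Ki were estimated from fitted data.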

mice fed a high-fat diet [2] = assay: Glucose tolerance test after 12 weeks of treatment on high-fat diet; assay type: in vivo; details: overnight fasted mice, 2 g/kg glucose i.p., after 12 weeks daily i.p. 5 mg/kg on high-fat diet
Protocol: as §1
(§2) Animals (n = 90) were randomly assigned to one of the nine groups (Table 1). Animals were fed ad libitum with a high-fat diet (60% of caloric intake from fat (70% saturated fat), 20% from carbohydrates, and 20% from protein) before experiments and for another 12 weeks during the experiments. Food intake was measured manually on a daily basis. Eight groups of animals were treated with indicated peptides with a daily i.p. injection at 5 mg/kg and one group of animals were treated with vehicle.
After receiving 12 weeks of treatment as described above, glucose tolerance tests were performed in overnight fasted mice. Each mouse received a 2 g/kg glucose through i.p. Blood samples were obtained from the tail tip at 0, 30, 60, 90, and 120 min. Insulin concentrations were measured using mouse insulin Elisa kits (ChrystalChem) using mouse standards. Glucose levels were measured using a glucometer (Roche).

mice fed a high-fat diet [3] = assay: Indirect energy expenditure and physical activity measurement; assay type: in vivo; details: after 12 weeks daily i.p. 5 mg/kg on high-fat diet; for Oxygen consumption VO2: vehicle 4.15 ± 0.55; for Ambulatory day activity: vehicle 2,069 ± 705
Protocol: as §1, §2
After receiving 12 weeks of treatment as described above, rates of oxygen consumption (VO2) was measured using a four-chamber indirect calorimeter (Langguan, China, air flow of 0.5 l/min). A total of 2-hour measurement for each animal was conducted at 15-minuate intervals under room temperature (22°C). Ambulatory activity was estimated by counting the number of photobeam breaks in a three-sensor chamber instrument (Rui Pharm, China), and the cumulative ambulatory activity counts were recorded every hour. A total of 12 h-day time and 12 h-night activity were recorded for each animal.

mice = assay: Acute toxicity in mice; assay type: in vivo; details: up to 15 mg/kg i.p.; for signs of acute toxicity: 72 hours; for death of animals: another 14 days following the initial examination; for H&E staining of livers, spleens and kidneys: end of experiment
Protocol: as §1
The control group (n = 10) received vehicle only. Eight groups (10 mice each) were treated with increasing doses of either peptide 1, 3, 10, 34, 2, 60, 49, and 51 up to 15 mg/kg by i.p. Number of death, sedation, spontaneous motor activity, alertness, ptosis, dyspnea, convulsion, diarrhea, urination, postural reflex, piloerection, nociception, grooming, vocalization, rearing, climbing and aggression were observed every 12 hours for 72 h. Animals were maintained for another 14 days after the initial examination. We planned to sacrifice the animals if they show severe signs of pain or distress, a body weight loss in excess of 15% of its body weight, or a deterioration of the body condition score to BC2(-) or below. However, none of the animals qualified for the mentioned the symptoms. No animals died during the whole study. At the end of the experiment, animals were euthanized by CO2 asphyxiation followed by cervical dislocation, the livers, spleens and kidneys were collected and formalin-fixed paraffin-embedded for H&E staining.

mice fed a high-fat diet [4] = assay: High-fat diet-induced obesity: body weight, food intake, body composition, adipocyte volume; assay type: in vivo; details: daily i.p. 5 mg/kg; for percentage of perigonadal fat mass / adipocyte volume: 12 weeks; for percentage of perigonadal fat mass: NMR, vehicle 8 ± 0.8%; for adipocyte volume: adipocytes from epididymal fat pad, vehicle 510 ± 42 pL
Protocol: as §1, §2
Body composition was measured using nuclear magnetic resonance (NMR) technology at Chengdu College core facility. Epididymal fat pads were excised and adipocytes were isolated. Cells were then fixed using 2% OsO4 in PBS overnight at 37°C [2].

Compound: Ac-PFKPP-NH2 [Peptide 1, Ac-PFKPP-NH2]
- Cmax ([1]; observed in 30 min): 3080 ng/mL
- Ki (Cbl (RING) protein): 7.2 ± 0.5 µM
- glucose tolerance compared to the vehicle group (mice fed a high-fat diet [2]): not statistically significant
- Oxygen consumption VO2 (mice fed a high-fat diet [3]): 3.95 ± 0.22 mL/g/h
- Ambulatory day activity (mice fed a high-fat diet [3]; photobeam break counts): 2,152 ± 865 per 12 h
- Ambulatory night activity (mice fed a high-fat diet [3]; photobeam break counts, vehicle 6,289 ± 1,216): 5,941 ± 1,355 per 12 h
- signs of acute toxicity (mice): did not show vital signs of acute toxicity
- death of animals (mice): None of the animals died
- H&E staining of livers, spleens and kidneys (mice): does not show any sign of injuries
- percentage of perigonadal fat mass (mice fed a high-fat diet [4]): 6.2 ± 0.7%
- adipocyte volume (mice fed a high-fat diet [4]): 430 ± 35 pL

Compound: CC(=O)N1CSC[C@H]1C(=O)N[C@@H](Cc1cccc(F)c1)C(=O)N[C@@H](CCCCN)C(=O)N1CCC[C@H]1C(=O)N1CCC[C@H]1C(N)=O [Peptide 34, Ac-(r) (h)KPP-NH2] (Ac-[Thz][Phe(3-F)]KPP-NH2)
- Cmax ([1]; observed in 60 min): 5020 ng/mL
- plasma concentrations compared to the parental peptides 1 and 2 ([1]; at each time point after 1 hour): greater plasma concentrations
- Ki (Cbl (RING) protein): 1.5 ± 0.4 µM
- blood insulin levels compared to the vehicle group (mice fed a high-fat diet [2]): significant reduction in blood insulin levels
- glucose tolerance compared to the vehicle group (mice fed a high-fat diet [2]): better glucose tolerance
- Oxygen consumption VO2 (mice fed a high-fat diet [3]): 5.88 ± 0.85 mL/g/h
- Ambulatory day activity (mice fed a high-fat diet [3]; photobeam break counts): 3,485 ± 864 per 12 h
- signs of acute toxicity (mice): did not show vital signs of acute toxicity
- death of animals (mice): None of the animals died
- H&E staining of livers, spleens and kidneys (mice): does not show any sign of injuries
- body weight gain vs vehicle, parental and negative control peptide groups (mice fed a high-fat diet [4]; 12-week feeding period): significant differences in body weight gain
- percentage of perigonadal fat mass (mice fed a high-fat diet [4]): 3.0 ± 0.9%
- adipocyte volume (mice fed a high-fat diet [4]): 258 ± 29 pL
